Test results taken from the supplement of paper PMC10307832.

How the values were obtained:
Test in all cases: relative viability (nuclei count vs DMSO), 5 days (fraction); higher = more cells survive
AGI-6780 + Luminespib = compound: O=C(Nc1cccc(C(F)(F)F)c1)Nc1cc(S(=O)(=O)NC2CC2)ccc1-c1ccsc1 [AGI-6780] + CCNC(=O)c1noc(-c2cc(C(C)C)c(O)cc2O)c1-c1ccc(CN2CCOCC2)cc1 [Luminespib] (partner 0.01 µM)
Outline: (§1)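 Lung cancer cell lines, seeded in 1536-well plates, were treated the following day by pin tool with a single drug or with five library-drug doses (not always all listed) in √10 steps on top of a fixed anchor-drug dose. Cells were fixed and nuclei stained in one step after 5 days, and nuclei were counted. Relative viability is the nuclei count for treated wells divided by that for vehicle wells, reported as medians of duplicate plates.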

AGI-6780 + Dasatinib = compound: O=C(Nc1cccc(C(F)(F)F)c1)Nc1cc(S(=O)(=O)NC2CC2)ccc1-c1ccsc1 [AGI-6780] + Cc1nc(Nc2ncc(C(=O)Nc3c(C)cccc3Cl)s2)cc(N2CCN(CCO)CC2)n1 [Dasatinib] (partner 0.075 µM)
Outline: as §1

AGI-6780 + Navitoclax = compound: O=C(Nc1cccc(C(F)(F)F)c1)Nc1cc(S(=O)(=O)NC2CC2)ccc1-c1ccsc1 [AGI-6780] + CC1(C)CCC(c2ccc(Cl)cc2)=C(CN2CCN(c3ccc(C(=O)NS(=O)(=O)c4ccc(N[C@H](CCN5CCOCC5)CSc5ccccc5)c(S(=O)(=O)C(F)(F)F)c4)cc3)CC2)C1 [Navitoclax] (partner 0.5 µM)
Outline: as §1

AGI-6780 + Bortezomib = compound: O=C(Nc1cccc(C(F)(F)F)c1)Nc1cc(S(=O)(=O)NC2CC2)ccc1-c1ccsc1 [AGI-6780] + CC(C)C[C@H](NC(=O)[C@H](Cc1ccccc1)NC(=O)c1cnccn1)B(O)O [Bortezomib] (partner 0.002 µM)
Outline: as §1

Cell Line | relative viability (AGI-6780 + Luminespib; first compound 0.08 µM) | relative viability (AGI-6780 + Luminespib; first compound 0.253 µM) | relative viability (AGI-6780 + Luminespib; first compound 0.8 µM) | relative viability (AGI-6780 + Luminespib; first compound 2.53 µM) | relative viability (AGI-6780 + Luminespib; first compound 8 µM) | relative viability (AGI-6780 + Dasatinib; first compound 0.08 µM) | relative viability (AGI-6780 + Dasatinib; first compound 0.253 µM) | relative viability (AGI-6780 + Dasatinib; first compound 0.8 µM) | relative viability (AGI-6780 + Dasatinib; first compound 2.53 µM) | relative viability (AGI-6780 + Dasatinib; first compound 8 µM) | relative viability (AGI-6780 + Navitoclax; first compound 0.08 µM) | relative viability (AGI-6780 + Navitoclax; first compound 0.253 µM) | relative viability (AGI-6780 + Navitoclax; first compound 0.8 µM) | relative viability (AGI-6780 + Navitoclax; first compound 2.53 µM) | relative viability (AGI-6780 + Navitoclax; first compound 8 µM) | relative viability (AGI-6780 + Bortezomib; first compound 0.08 µM) | relative viability (AGI-6780 + Bortezomib; first compound 0.253 µM) | relative viability (AGI-6780 + Bortezomib; first compound 0.8 µM) | relative viability (AGI-6780 + Bortezomib; first compound 2.53 µM) | relative viability (AGI-6780 + Bortezomib; first compound 8 µM)
201T | 1.09 | 1.04 | 1.06 | 0.988 | 1.08 | 0.613 | 0.53 | 0.564 | 0.476 | 0.6 | 1.26 | 1.19 | 1.24 | 1.18 | 1.26 | 1.11 | 0.981 | 1.02 | 1.1 | 1.1
A-427 | 0.943 | 0.717 | 0.882 | 0.802 | 0.97 | 0.696 | 0.66 | 0.759 | 0.582 | 0.668 | 0.942 | 0.922 | 1 | 0.81 | 0.942 | 1.13 | 1.02 | 1.06 | 0.917 | 0.991
ABC-1 | 0.58 | 0.447 | 0.63 | 0.821 | 0.408 | 0.589 | 0.57 | 0.632 | 0.553 | 0.712 | – | – | – | – | – | 0.295 | 0.35 | 0.335 | 0.262 | 0.378
BEN | 0.355 | 0.331 | 0.37 | 0.33 | 0.358 | 0.219 | 0.348 | 0.291 | 0.3 | 0.377 | 0.0592 | 0.0703 | 0.0549 | – | 0.0845 | 0.657 | 0.813 | 0.852 | – | 0.754
CAL-12T | 0.245 | 0.58 | 0.644 | 0.476 | 0.402 | 0.549 | 0.501 | 0.676 | 0.4 | 0.487 | 1.2 | 1.17 | 1.38 | 1.53 | 1.25 | – | 1.05 | 0.944 | 1.31 | 1.06
COR-L23 | 0.772 | 0.641 | 0.695 | 0.663 | 0.643 | 0.548 | 0.42 | 0.529 | 0.496 | 0.488 | 1.01 | 0.961 | 0.985 | 1.02 | 1.11 | 1.05 | 0.96 | 0.814 | 0.935 | 0.851
COR-L 105 | 0.81 | 0.654 | 0.725 | 0.618 | 0.535 | 0.345 | 0.349 | 0.397 | 0.369 | 0.378 | 0.918 | 0.62 | 0.841 | 0.862 | 0.763 | 0.886 | 0.896 | 0.993 | 0.766 | 0.813
Calu-6 | – | – | – | – | – | – | – | – | – | – | 0.948 | 0.815 | 0.846 | 0.833 | 0.891 | 1.12 | 0.976 | 1.02 | 1.12 | 0.972
ChaGo-K-1 | 0.573 | 0.467 | 0.64 | 0.497 | 0.76 | 0.612 | 0.543 | 0.576 | 0.524 | 0.642 | 0.894 | 1.25 | 1.15 | 0.746 | 0.992 | 0.772 | 1.02 | 1.08 | 1.01 | 0.932
EBC-1 | – | – | – | – | – | – | – | – | – | – | 0.407 | 0.429 | 0.365 | 0.512 | 0.38 | 0.781 | 0.566 | 0.485 | 0.601 | 0.529
EKVX | 0.916 | 0.877 | 0.989 | 0.918 | 0.847 | 0.583 | 0.467 | 0.598 | 0.6 | 0.619 | 1.02 | 0.879 | 0.935 | 0.717 | 0.978 | 1.12 | 1.07 | 1.05 | 0.697 | 0.958
EMC-BAC-2 | 1.2 | 1.24 | 1.17 | 0.947 | 1.18 | 0.313 | 0.338 | 0.311 | 0.273 | 0.334 | 1.19 | 1.14 | 1.23 | 1.14 | 1.17 | 1.14 | 1.03 | 1.1 | 0.856 | 1.14
EPLC-272H | – | 0.359 | 0.267 | 0.166 | 0.244 | – | 0.423 | 0.292 | 0.285 | 0.365 | 1.17 | 1.37 | 1.02 | 0.918 | 1.08 | 0.905 | 1.03 | 0.901 | 0.766 | 1.03
H3255 | 0.808 | 0.925 | 0.905 | 0.852 | 0.949 | 0.349 | 0.374 | 0.456 | 0.353 | 0.333 | 0.395 | 0.537 | 0.688 | 0.292 | 0.516 | 0.572 | 0.739 | 0.836 | 0.69 | 0.865
HARA | 0.787 | 0.594 | 0.177 | 0.944 | 0.93 | 0.229 | 0.278 | 0.259 | 0.179 | 0.233 | 1.2 | 1.15 | 1.09 | 1.19 | 1.19 | 1.24 | 1.09 | 0.948 | 1.19 | 1.16
HCC-15 | 0.407 | 0.247 | 0.274 | 0.38 | 0.3 | 0.732 | 0.636 | 0.736 | 0.437 | 0.621 | 0.727 | 0.698 | 0.743 | 0.641 | 0.684 | 1.1 | 0.993 | 1.06 | 1.04 | 1.02
HCC-44 | 1.18 | 1.01 | 1.16 | 1.09 | 0.982 | – | – | – | – | – | 0.969 | 1.02 | 0.94 | 0.856 | 1.11 | 0.927 | 0.887 | 0.884 | 0.843 | 0.928
HCC-78 | – | – | – | – | – | – | 0.388 | 0.433 | 0.364 | 0.351 | 0.845 | 0.789 | 0.9 | 0.779 | 0.801 | 0.479 | 0.432 | 0.739 | 0.626 | 0.581
